Article PMC5418711, “Safety and efficacy of the choline analogue SAR97276 for malaria treatment: results of two phase 2, open-label, multicenter trials in African patients” (Malaria Journal, 2017)
“And” between values parts separate entries of the source, which are not always exact repeats. Equal values may be shown once. Read-outs that look alike come from different tables or passages of the source.

What was measured:
[1] = Study 2: safety assessment (TEAEs, ECG, respiratory parameters); type: in vivo, human; settings: for QTc interval - change from baseline Borderline: Incr. from B 30-60 ms / QTc interval - change from baseline Prolonged: Incr. from B > 60 ms / QTc interval Borderline: 431-450 ms (Boys); 451-470 ms (Girls) / QTc interval Prolonged: > 450 ms (Boys); > 470 ms (Girls) / QTc interval ≥ 500 ms: TEAE period
Protocol: (§1) Study duration and follow-up In both studies, study duration was 28 days for each patient including a screening period of up to 12 h before inclusion into the study. Participants were hospitalized for at least 3 days (72 h) after the start of treatment. Follow-up visits were done on day 6, 8, 14 ± 2, 21 ± 2, 28 ± 2 (Study 1); and day 7, 14 ± 2, 21 ± 2, 28 ± 2 (Study 2). Patient examination Fever measurements and thick blood smears were done every 6 h until 72 h and at each follow-up visit. Parasitemia was determined microscopically by Giemsa stained thick blood smear by two trained microscopists blinded to each other. Safety assessment Safety analysis was based on AEs including vision assessment recorded from baseline until day 28 (in binocular conditions, for near and distant visual acuity, using standard optotypes appropriate for patient’s age and reading ability. Tests with standard corrective glasses (+3 and −3 diopters) were performed in case of visual adverse events, to assess whether vision improved or worsened with corrective glasses). Laboratory tests including hematology, biochemistry and urine analysis were done at baseline, day 2, 4, 28 (Study 1), or baseline, day 2, 4, 14, 28 (Study 2); vital signs were recorded at baseline, every 6 h until 72 h and on each follow up visit. An electrocardiogram (ECG) was done at baseline, day 4, 28 (Study 1), or baseline, 48 h, 72 h, day 28 (Study 2). For Study 2 respiratory parameters (respiratory rate, peak flow, efficiency of cough) were also checked at baseline and 30 min after first dose on day 1, 2 and 3.
Treatment emergent adverse events (TEAEs) were defined as AEs that developed or worsened during the treatment period until day 6 following the end of study treatment.

malaria mouse model = test system: malaria mouse model; parameters: method as in PMID 11847346, PMID 15492221, PMID 12878525; settings: cited from earlier work; for Curative 4-day dose: mouse model
P. falciparum = assay: Study 2: phase 2 randomized controlled trial, efficacy in teenagers with uncomplicated falciparum malaria; type: in vivo, Plasmodium falciparum; settings: for Median PRR (parasite reduction ratio: parasitemia at baseline/parasitemia at 72 h): N=8, at 72 h
Excerpt: The study was designed to enroll up to 180 participants. A randomized, controlled, age de-escalating trial design was applied in Study 2 to assess SAR97276A as a 3-day regimen administered IM to underage malaria patients. […] The study was planned to be conducted first in teenagers (age 12–17 years) and then in children (age 2–11 years).
Study 2 only enrolled uncomplicated malaria patients with P. falciparum ≥2000 parasites/µL. Two age groups were planned: Teenager aged 12–17 years and children aged 2–11 years. SAR97276A was planned to be administered only by IM injection.
as §1, with “Safety assessment Safety analysis was based on AEs including vision assessment recorded from baseline until day 28 (in binocular conditions, for near and distant visual acuity, using standard optotypes appropriate for patient’s age and reading ability. Tests with standard corrective glasses (+3 and −3 diopters) were performed in case of visual adverse events, to assess whether vision improved or worsened with corrective glasses).” left out
Primary endpoint consisted of two criteria: (1) parasite clearance at 72 h analyzed by thick blood smear and (2) measurement of parasite reduction ratio (PRR: parasitemia at baseline/parasitemia at 72 h).
Sample size was calculated based on the parasite reduction ratio (PRR). Details are described in the supplementary information (see Additional file 4). PRR was calculated by: parasitemia at baseline/parasitemia at 72 h. For patients who prematurely discontinued study treatment the parasitemia at 72 h was replaced by last measurement of parasitemia or last measurement before rescue therapy for calculation of PRR at 72 h.
Parasite clearance time (PCT), PC50 and PC90 were calculated by Kaplan–Meier method. Interim analysis was to be performed following completion of each cohort.
Study 2: The patients were monitored up to day 28. […] The current available recommended rescue therapy as recommended by local guidelines was given. Treatment failures were described as early and late treatment failures.
Late treatment failure was defined as development of severe malaria after day 3 after first study drug administration in presence of parasitemia, and /or parasitemia on day 4 - 14 with axillary temperature ≥ 37.5°C, and /or any additional antimalarial therapy not specified in the study protocol.

[2] = Group 2A: 3 days IM once daily 0.5 mg/kg, teenagers, N=8
[3] = Group 2A: 3 days IM once daily 0.5 mg/kg, teenagers, N=8, baseline 205
[4] = Group 2A: 3 days IM once daily 0.5 mg/kg, teenagers
[5] = Group 2B: 3 days IM twice daily 0.25 mg/kg, teenagers, N=8
[6] = Group 2B: 3 days IM twice daily 0.25 mg/kg, teenagers, N=8, baseline 185
[7] = Group 2B: 3 days IM twice daily 0.25 mg/kg, teenagers
[8] = Group 2A: 3 days IM once daily 0.5 mg/kg, N=8
[9] = Group 2B: 3 days IM twice daily 0.25 mg/kg, N=8

Cc1c(CCO)sc[n+]1CCCCCCCCCCCC[n+]1csc(CCO)c1C [SAR97276A]
Patients with TEAE leading to treatment discontinuation [1, 2]: 2 (25%)
Patients with any TEAE [1, 2]: 8 (100%)
Patients with any serious AE [1, 2]: 4 (50%)
TEAE: Decreased appetite [1, 2]: 0
TEAE: Gastrointestinal disorders [1, 2]: 4 (50%)
TEAE: Headache [1, 2]: 0
TEAE: Hepatitis B [1, 2]: 1 (13%)
TEAE: Jaundice [1, 2]: 1 (13%)
TEAE: Lacrimation increased [1, 2]: 1 (13%)
TEAE: Malaria [1, 2]: 7 (88%)
TEAE: Neutropenia [1, 2]: 0
TEAE: Pyrexia [1, 2]: 0
TEAE: Vertigo [1, 2]: 1 (12.5%)
TEAE: Vision blurred [1, 2]: 1 (13%)
Peakflow, change from baseline on D1 0.30 h [1, 3]: -15.0 median L/min
Peakflow, change from baseline on D2 24.30 h [1, 3]: 4.0 median L/min
Peakflow, change from baseline on D23 48.30 h [1, 3]: 45.0 median L/min
QTc interval - change from baseline Borderline: Incr. from B 30-60 ms [1, 4]: 2/8
QTc interval - change from baseline Prolonged: Incr. from B > 60 ms [1, 4]: 0/8
QTc interval Borderline: 431-450 ms (Boys); 451-470 ms (Girls) [1, 4]: 3/8
QTc interval Prolonged: > 450 ms (Boys); > 470 ms (Girls) [1, 4]: 0/8
QTc interval ≥ 500 ms [1, 4]: 0/8
Patients with TEAE leading to treatment discontinuation [1, 5]: 2 (25%)
Patients with any TEAE [1, 5]: 5 (63%)
Patients with any serious AE [1, 5]: 2 (25%)
TEAE: Decreased appetite [1, 5]: 1 (13%)
TEAE: Gastrointestinal disorders [1, 5]: 1 (13%)
TEAE: Headache [1, 5]: 0
TEAE: Jaundice [1, 5]: 0
TEAE: Lacrimation increased [1, 5]: 0
TEAE: Malaria [1, 5]: 4 (50%)
TEAE: Neutropenia [1, 5]: 2 (25%)
TEAE: Pyrexia [1, 5]: 0
TEAE: Vertigo [1, 5]: 0
TEAE: Vision blurred [1, 5]: 0
Peakflow, change from baseline on D1 0.30 h [1, 6]: 2.5 median L/min
Peakflow, change from baseline on D2 24.30 h [1, 6]: 5.0 median L/min
Peakflow, change from baseline on D23 48.30 h [1, 6]: -10.0 median L/min
QTc interval - change from baseline Borderline: Incr. from B 30-60 ms [1, 7]: 0/8
QTc interval - change from baseline Prolonged: Incr. from B > 60 ms [1, 7]: 0/8
QTc interval Borderline: 431-450 ms (Boys); 451-470 ms (Girls) [1, 7]: 2/8
QTc interval Prolonged: > 450 ms (Boys); > 470 ms (Girls) [1, 7]: 2/8
QTc interval ≥ 500 ms [1, 7]: 0/8
Overall safety profile ([1]; Study 2): good
Patients with a TEAE who discontinued study treatment and received rescue treatment, total ([1]; Study 2): Four
Respiratory parameters: untoward effect ([1]; Study 2): no indication for an untoward effect
SAEs: relation to study treatment ([1]; Study 2): not related
Patients who had a SAE, total ([1]; Study 2, all in the SAR97276A treatment groups): 6
Neutrophil count in the two patients with neutropenia who discontinued treatment ([1]; Study 2, day 2, returned to normal values at 72 h after treatment start): 0.99 giga/L and 0.91 giga/L
Patients with a SAE with persistence of uncomplicated malaria ([1]; Study 2, of six SAE patients): five
Efficacy in malaria mouse model (malaria mouse model): highly efficacious
Curative 4-day dose (malaria mouse model; orally): 20 to 45 mg/kg/day
Curative 4-day dose (malaria mouse model; parenterally): 1 mg/kg/day
Early treatment failures (P. falciparum; [8]): 4
Late treatment failures (P. falciparum; [8]): 3
Patients classified as treatment failures (P. falciparum; [8]): 7/8
Patients who received rescue treatment during the trial (P. falciparum; [8]): 8/8
Median PRR (parasite reduction ratio: parasitemia at baseline/parasitemia at 72 h) (P. falciparum; Group 2A: 3 days IM once daily 0.5 mg/kg): 22.5 (0.4–6280.0)
Parasitemia between 6 and 12 h after the start of treatment (P. falciparum; Group 2A: 3 days IM once daily 0.5 mg/kg, not seen in the other groups): Increase of parasitemia
Early treatment failures (P. falciparum; [9]): 4
Late treatment failures (P. falciparum; [9]): 1
Patients classified as treatment failures (P. falciparum; [9]): 5/8
Patients who received rescue treatment during the trial (P. falciparum; Group 2B: 3 days IM twice daily 0.25 mg/kg, N=8, 0.25 mg/kg): 5 out of 8 and 5/8
Median PRR (parasite reduction ratio: parasitemia at baseline/parasitemia at 72 h) (P. falciparum; Group 2B: 3 days IM twice daily 0.25 mg/kg): 12.0 (0.3–83.1)
